Measurements published in US20200011852A1, “METHODS FOR PREDICTING THE ANTICANCER THERAPEUTIC RESPONSE OF L-ASCORBIC ACID” (priority 2018, published 2020).

Assays:
Assay type in all cases: cell-based, human
[1] = tested on: SVCT-2 high-expression cell lines, Sw620 and Sw480; experiment: qRT-PCR gene expression analysis, SVCT-2 high-expression cell lines
Description: (§1) According to the method provided by the manufacturer, the total RNA of cells was extracted using TRI reagent (MRC; Molecular Research Center, Cincinnati, Ohio, USA). The RNA concentration was determined using a spectrophotometer reading the absorbance at 260 nm. cDNA was synthesized using mML-V reverse transcriptase (Bioneer Co, Daejeon, Republic of Korea) according to the protocol provided by the manufacturer. Then, using SYBR Premix Ex Taq (TaKaRa, Otsu, Shinga, Japan) and Rotor-Gene Q system (Qiagen, Chadstone, Victoria, Australia), quantitative real-time PCR was carried out. Data were analyzed using Rotor-Gene Q series software version 2.3.1 (Qiagen).
(§2) In order to confirm the apoptosis and hormetic proliferation response by vitamin C, the quantitative real-time polymerase chain reaction (qRT-PCR) gene-expression analysis of p53, Cyclin D1, E2F1 and Ki-67 genes was conducted using the method of Experimental example 3, and the result was shown in FIG. 2c to FIG. 2f.
After treating vitamin C 10 μM and phloretin to SVCT-2 high-expression cell lines, Sw480 and Sw620 at the same time, the relative expression of Ki-67 and E2F1 used as cancer cell proliferation markers was measured using the qRT-PCR of Example 1, and the result was shown in FIG. 5e and FIG. 5f.

[2] = tested on: Sw620 and Sw480 cell lines; experiment: ROS production by DCF-Da staining (FACS), SVCT-2 high-expression cell lines
Description: In order to confirm ROS production in SVCT-2 high-expression cell lines in the apoptosis response and hormetic response, and more specifically confirm the cause of the result of Example 5, the present inventors investigated ROS production using DCF-Da staining in Sw620 cell line and Sw480 cell line, and the result was shown in FIG. 5c and FIG. 5d.

[3] = tested on: SVCT-2 high-expression cell lines, Sw480 and Sw620; experiment: Western blot of Bax, c-Myc and Cyclin D1, SVCT-2 high-expression cell lines
Description: (§3) Protein was extracted from frozen tissue using PRO-PREP protein extraction kit according to the instruction of the manufacturer. The protein concentration was measured using Bradford assay (Bio-RAD, Munich, Germany)
(§4) After denaturalizing protein 30 μg in sample buffer at 95° C. for 6 minutes, samples were loaded on 12% SDS-polyacrylamide gel and were transferred to a nitrocellulose blotting membrane. Subsequently, the membrane was blocked with 5% skim milk in Tris-buffered saline. Then, after washing it with Tris-buffered saline-0.10% Tween 20 three times, the membrane was cultured at 4° C. overnight with anti-cyclin D1 (1:2500; NB600-584; Novus biologics), anti-c-Myc (1:2500; NB200-108; Novus biologics), anti-Bax (1:2000; 2774; Cell Signaling Technology, Beverly, Mass., USA), and anti-beta-actin (1:5000; ab20272; Abcam, Cambridge, Mass., USA) antibodies. Then, after washing it with Tris-buffered saline-0.10% Tween 20 4 times for 20 minutes, the membrane was cultured with a secondary anti-rabbit, anti-rat or anti-goat antibody for 1 hour. After additional washing, immunoreactive bands exposed to ECL substrate (Pierce, Rockford, Ill., USA) and X-ray film (Agfa-Gevaert N.V, Septestraat, Mortsel, Belgium) were detected.
After treating vitamin C 10 μM and phloretin to SVCT-2 high-expression cell lines, Sw480 and Sw620 at the same time, the western blot analysis of Bax, c-Myc and Cyclin D1 in cells was conducted, and the result was shown in FIG. 6c and FIG. 6d.

[4] = tested on: SVCT-2 high-expression cells; experiment: c-Myc localization by immunocytochemistry, SVCT-2 high-expression cell lines; conditions: phloretin treated together with vitamin C
Description: (§5) Cells treated with vitamin C were immobilized with 4% paraformaldehyde for 10 minutes and were washed with PBS 3 times for 5 minutes, and then permeable buffer (Biolegend, San Diego, Calif., USA) was treated for 10 minutes. Then, cells were washed with PBS 3 times and were cultured with anti-c-Myc (1:500; NB200-108, Novus biologics) antibody at 4° C. overnight. Then, after washing with PBS 4 times, cells were cultured with a secondary anti-mouse-TRITC (1:1000; ab6786; Abcam) conjugated antibody.
In order to confirm the cell proliferation by the hormetic response in cancer cell lines, the cell proliferation confirmation experiment through c-Myc was conducted.
Specifically, after smearing cells on cover glass and culturing them, vitamin C was treated and after washing with PBS, an antigen with […] as antigens was attached to cells, and it was confirmed through fluorescence.

[5] = tested on: SVCT-2 high-expression cell lines, Sw480 and Sw620; experiment: Cell viability of Sw480 and Sw620 treated with vitamin C and/or phloretin; conditions: for cell response (cell viability): Sw620 and Sw480
Description: (§6) The cell viability was measured by Neutral red (sigma) assay. Cells (1×10^4/each well) were inoculated on a 96-well plate and were cultured for 24 hours and were treated with vitamin C for 4 hours, and then were washed with PBS (Pan Biotech), and were further cultured in RPMI1640 without vitamin C for 20 hours. They were washed twice and were stained.

[6] = tested on: SVCT-2 high-expression cell lines, Sw480 and Sw620; experiment: Vitamin C absorption in Sw480 and Sw620 with the SVCT family inhibitor phloretin; conditions: phloretin 20 μM together with vitamin C 1 mM
Description: In order to measure the vitamin C absorption of each colorectal cancer cell line, the absorption of vitamin C in cells was analyzed with High Performance Liquid Chromatography (HPLC), and the result was shown in FIG. 1c.
Then, after treating 1 mM vitamin C, or treating vitamin C 1 mM and phloretin 20 μM together to each cell line of the SVCT-2 high-expression cell lines, Sw480 and Sw620, the vitamin C absorption was measured, and the result was shown in FIG. 9a.
The experimental results measured according to the method for measuring the vitamin C absorption of SVCT-2 expression cell lines of Example 1-3, after treating various concentrations (0 mM or 1 mM) of vitamin C and treating 1 mM vitamin C and 20 μM phloretin, for SVCT-2 high-expression cell lines, Sw480 and Sw620 were shown in FIG. 9a.

[7] = tested on: colorectal cancer cell lines (Sw480, Sw620, LoVo, SNU-C4, HCT116, SNU-05, CoLo-205, HCT15, DLD-1); experiment: Cell viability (Neutral red) of colorectal cancer cell lines treated with 1 mM vitamin C; conditions: nine colorectal cancer cell lines
Description: Human colorectal cancer cells were cultured in RPMI1640 medium Gilbco, Cergy Pontoise, France) containing 10% bovine fetal serum (PAN Biotech, Aidenbach, Germany) and 1% Penstrep (PAN Biotech) in a humidified incubator comprising 5% CO2 under the condition of 37° C. Vitamin C was purchased from BCWORLD PHARM (BCWORLD PHARM. CO, Seoul, Korea), and phloretin was purchased from sigma Aldrich (Sigma, St. Louis, Mo., USA).
The human colorectal cancer cell lines used in the experiment were Sw480, Sw620, HCT116, HCT15, SNU-C4, SNU-05, DLD-1, LoVo, and CoLo-205 cell lines commonly used in the related art. All the colorectal cancer cell lines used in the experiment of the present invention were received from Dr. Yu Byung-Chul of National Cancer Center.
as §6
The cell viability of each colorectal cancer cell line was measured using the method of Experimental example 2, and the result was shown in FIG. 1b.

[8] = tested on: SVCT-2 low-expression cell lines (HCT116, CoLo-205, HCT15, DLD-1); experiment: Cell viability (Neutral red), vitamin C concentration gradient, SVCT-2 low-expression cell lines
Description: as §6
(§7) In order to research a role conducted by vitamin C treated at a high concentration or low concentration to cancer cell lines, after treating vitamin C at various concentrations according to a concentration gradient to each cell line, the cell viability analysis was conducted using the method of Experimental example 2.
After treating vitamin C to SVCT-2 low-expression cell liens (HCT116, CoLo-205, HCT15, DLD-1) according to a concentration gradient (0 μm to 2 mM), the cell viability was measured, and the result was shown in FIG. 2a.

[9] = tested on: SVCT high-expression cell lines (Sw480, Sw620, LoVo, SNU-C4); experiment: Cell viability (Neutral red), vitamin C concentration gradient, SVCT-2 high-expression cell lines
Description: as §6, §7
As same as the SVCT low-expression cell lines, after treating vitamin C to SVCT high-expression cell lines (Sw480, Sw620, LoVo, SNU-C4) according to a concentration gradient (0 μm to 2 mM), the cell viability was measured, and the result was shown in FIG. 2b. It was confirmed that in case of high-expression cell lines, when treating a low concentration of vitamin C, the cell viability was reduced, and as the treated concentration of vitamin C increased, the cell viability was reduced more.

[10] = tested on: SVCT-2 low-expression cell lines, DLD-1 and HCT15; experiment: qRT-PCR gene expression analysis, SVCT-2 low-expression cell lines
Description: as §1, §2

[11] = tested on: SVCT-2 low-expression cell lines (DLD1 and HCT15); experiment: ROS production by DCF-Da staining (FACS), SVCT-2 low-expression cell lines; conditions: 15 minutes, DLD-1 and HCT15
Description: In order to investigate ROS production, when treating vitamin C of 10 μM or 1 mM to SVCT-2 low-expression cell lines (DLD1 and HCT15), after treating each dose of vitamin C to SVCT-2 low-expression cell lines, they were stained with DCF-Da, and the ROS measurement result was shown in FIG. 3a and FIG. 3b.

[12] = tested on: HCT15 and DLD-1; experiment: Western blot of Bax, c-Myc and Cyclin D1, SVCT-2 low-expression cell lines
Description: as §3, §4
In order to investigate the apoptosis and proliferation of cancer cells by vitamin C treatment in the protein expression level, a low concentration or high concentration of vitamin C was treated to SVCT-2 low-expression cell lines and the western blot analysis of Bax, c-Myc, and Cyclin D1 was conducted using the method of Experimental example 4, and the result was shown in FIG. 4c and FIG. 4d.

[13] = tested on: HCT15 and DLD-1 cell lines; experiment: c-Myc localization by immunocytochemistry, SVCT-2 low-expression cell lines; conditions: vitamin C 1 mM or 10 μM
Description: as §5
In order to investigate the expression of cancer proliferation markers in SVCT-2 low-expression cell lines and localization where c-Myc is present in cancer cell lines, after treating vitamin C of 1 mM or 10 μM to each SVCT-2 low-expression cell line, HCT15 and DLD-1 cell lines, the immunocytochemistry of Experimental example 5 was conducted, and the result was shown in FIGS. 4a and 4b.

[14] = vitamin C 10 μM and phloretin at the same time, Sw620 and Sw480
[15] = 10 μM vitamin C and phloretin at the same time
[16] = low concentration (10 μM) vitamin C, DLD-1 and HCT15
[17] = vitamin C 10 μM or 1 mM, Sw620 and Sw480
[18] = 10 μM or 1 mM vitamin C without phloretin

O=C(CCc1ccc(O)cc1)c1c(O)cc(O)cc1O [phloretin]
expression of E2F1 (qRT-PCR) [1, 14]: increased
expression of Ki-67 (qRT-PCR) [1, 14]: increased
ROS production (DCF-Da) ([2]; 20 μM phloretin with 10 μM vitamin C): not sufficiently produced
expression of C-Myc (western blot) [3, 15]: increased
expression of cyclin D1 (western blot) [3, 15]: increased
Bax expression (western blot) ([3]; phloretin treatment (with 10 μM vitamin C)): did not change remarkably
localization of increased c-Myc (immunocytochemistry) [4]: present in cytoplasm not a nucleus
cytotoxicity of phloretin (cell viability assay) ([5]; concentration of phloretin used in the experiment (20 μM; 0-40 μM tested), Sw480 and Sw620): no cell self-toxicity
cell response (cell viability) ([5]; phloretin together with vitamin C 10 μM): hormetic proliferation response occurred
intracellular capacity of vitamin C (vitamin C absorption) [6]: reduced

O=C1O[C@H]([C@@H](O)CO)C(O)=C1O [vitamin C, L-ASCORBIC ACID]
cytotoxicity of vitamin C (cell viability) [7]: proportional to SVCT-2 expression
cell viability ([8]; vitamin C 1.0 mM to 2.0 mM or more): dramatically reduced
cell viability ([8]; vitamin C less than 10 μM): over 100%
cell viability ([9]; as the treated concentration of vitamin C increased (up to 2 mM)): reduced more
cell viability ([9]; low concentration of vitamin C): reduced
expression of p53 (qRT-PCR) ([10]; 10 μM and 1 mM tested, SVCT-2 low-expression cell lines): induced only in case of treatment of 1 mM vitamin C
expression of E2F1 (qRT-PCR) [10, 16]: increased
expression of Ki-67 (qRT-PCR) [10, 16]: increased
expression of cyclin D1 (qRT-PCR) [10, 16]: increased
expression of p53 (qRT-PCR) ([1]; 10 μM and 1 mM, SVCT-2 high-expression cell lines): increased
expression of E2F1 (qRT-PCR) [1, 17]: reduced
expression of Ki-67 (qRT-PCR) [1, 17]: reduced
expression of cyclin D1 (qRT-PCR) [1, 17]: reduced
ROS production (DCF-Da) ([11]; 10 μM vitamin C): not produced
ROS production (DCF-Da) ([11]; 1 mM vitamin C): produced
ROS production (DCF-Da) ([2]; 1 mM vitamin C or 10 μM vitamin C): produced
expression of c-Myc (western blot) ([12]; 10 μM vitamin C): increased
expression of cyclin D1 (western blot) ([12]; 10 μM vitamin C): increased
expression of c-Myc (western blot) ([12]; 1 mM vitamin C): reduced
expression of cyclin D1 (western blot) ([12]; 1 mM vitamin C): reduced
Bax expression (western blot) ([12]; vitamin C 1 mM and 10 μM): did not significantly change
expression of C-Myc (western blot) [3, 18]: significantly reduced
expression of cyclin D1 (western blot) [3, 18]: significantly reduced
Bax expression (western blot) ([3]; vitamin C treatment (10 μM or 1 mM)): increased
c-Myc localization (immunocytochemistry) [13]: almost localized in cytoplasm
cell response (cell viability) ([5]; vitamin C 1 mM and 10 μM, without phloretin): apoptosis response was induced
